Results reported in PubChem BioAssay (NCI).
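48-hour exposure; five concentrations; linearly interpolated endpoints. Abbreviation: GI50, concentration required for 50% inhibition of growth. The concentration for full growth arrest is given as TGI.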

How the values were obtained:
Test in all cases: DTP human tumour cell line panel, 48 h
A498 renal = system: A498 renal
A549 NSCLC = system: A549 NSCLC
ACHN renal = system: ACHN renal
CAKI-1 renal = system: CAKI-1 renal
CCRF-CEM leukemia = system: CCRF-CEM leukemia
COLO 205 colon = system: COLO 205 colon
DLD-1 colon = system: DLD-1 colon
DMS 114 small cell lung = system: DMS 114 small cell lung
DMS 273 small cell lung = system: DMS 273 small cell lung
EKVX NSCLC = system: EKVX NSCLC
HCC-2998 colon = system: HCC-2998 colon
HCT-116 colon = system: HCT-116 colon
HCT-15 colon = system: HCT-15 colon
HL-60(TB) leukemia = system: HL-60(TB) leukemia
HOP-62 NSCLC = system: HOP-62 NSCLC
HOP-92 NSCLC = system: HOP-92 NSCLC
HT29 colon = system: HT29 colon
IGROV1 ovarian = system: IGROV1 ovarian
K-562 leukemia = system: K-562 leukemia
KM12 colon = system: KM12 colon
KM20L2 colon = system: KM20L2 colon
LOX IMVI melanoma = system: LOX IMVI melanoma
LXFL 529 NSCLC = system: LXFL 529 NSCLC
M14 melanoma = system: M14 melanoma
M19-MEL melanoma = system: M19-MEL melanoma
MOLT-4 leukemia = system: MOLT-4 leukemia
NCI-H226 lung = system: NCI-H226 lung
NCI-H23 lung = system: NCI-H23 lung
NCI-H460 lung = system: NCI-H460 lung
NCI-H522 lung = system: NCI-H522 lung
OVCAR-4 ovarian = system: OVCAR-4 ovarian
OVCAR-5 ovarian = system: OVCAR-5 ovarian
OVCAR-8 ovarian = system: OVCAR-8 ovarian
RPMI-8226 leukemia = system: RPMI-8226 leukemia
RXF 393 renal = system: RXF 393 renal
RXF-631 renal = system: RXF-631 renal
SF-268 CNS = system: SF-268 CNS
SF-295 CNS = system: SF-295 CNS
SF-539 CNS = system: SF-539 CNS
SK-MEL-2 melanoma = system: SK-MEL-2 melanoma
SK-MEL-28 melanoma = system: SK-MEL-28 melanoma
SK-MEL-5 melanoma = system: SK-MEL-5 melanoma
SK-OV-3 ovarian = system: SK-OV-3 ovarian
SN12C renal = system: SN12C renal
SNB-19 CNS = system: SNB-19 CNS
SNB-75 CNS = system: SNB-75 CNS
SNB-78 CNS = system: SNB-78 CNS
SR leukemia = system: SR leukemia
SW-620 colon = system: SW-620 colon
TK-10 renal = system: TK-10 renal
U251 CNS = system: U251 CNS
UACC-257 melanoma = system: UACC-257 melanoma
UACC-62 melanoma = system: UACC-62 melanoma
UO-31 renal = system: UO-31 renal
XF 498 CNS = system: XF 498 CNS
786-0 renal = system: 786-0 renal
HOP-18 NSCLC = system: HOP-18 NSCLC
MALME-3M melanoma = system: MALME-3M melanoma
OVCAR-3 ovarian = system: OVCAR-3 ovarian

Compound: O=C(Nc1ccc([N+](=O)[O-])cc1)C(=O)C(C(=O)c1ccccc1F)C1OC(=O)c2ccccc21 (configuration not stated)
- TGI (A498 renal): > 100 µM
- TGI (A549 NSCLC): > 100 µM
- TGI (ACHN renal): > 100 µM
- TGI (CAKI-1 renal): > 100 µM
- TGI (CCRF-CEM leukemia): 58.4 µM
- TGI (COLO 205 colon): 68 µM
- TGI (DLD-1 colon): > 100 µM
- TGI (DMS 114 small cell lung): 98 µM
- TGI (DMS 273 small cell lung): > 100 µM
- TGI (EKVX NSCLC): > 100 µM
- TGI (HCC-2998 colon): 41.4 µM
- TGI (HCT-116 colon): > 100 µM
- TGI (HCT-15 colon): > 100 µM
- TGI (HL-60(TB) leukemia): 66.1 µM
- TGI (HOP-62 NSCLC): > 100 µM
- TGI (HOP-92 NSCLC): > 100 µM
- TGI (HT29 colon): > 100 µM
- TGI (IGROV1 ovarian): > 100 µM
- TGI (K-562 leukemia): > 100 µM
- TGI (KM12 colon): > 100 µM
- TGI (KM20L2 colon): > 100 µM
- TGI (LOX IMVI melanoma): 60.7 µM
- TGI (LXFL 529 NSCLC): > 100 µM
- TGI (M14 melanoma): > 100 µM
- TGI (M19-MEL melanoma): > 100 µM
- TGI (MOLT-4 leukemia): > 100 µM
- TGI (NCI-H226 lung): 59.8 µM
- TGI (NCI-H23 lung): > 100 µM
- TGI (NCI-H460 lung): > 100 µM
- TGI (NCI-H522 lung): 41.6 µM
- TGI (OVCAR-4 ovarian): > 100 µM
- TGI (OVCAR-5 ovarian): > 100 µM
- TGI (OVCAR-8 ovarian): > 100 µM
- TGI (RPMI-8226 leukemia): 68.9 µM
- TGI (RXF 393 renal): 79.6 µM
- TGI (RXF-631 renal): 84 µM
- TGI (SF-268 CNS): > 100 µM
- TGI (SF-295 CNS): > 100 µM
- TGI (SF-539 CNS): 56 µM
- TGI (SK-MEL-2 melanoma): 71.6 µM
- TGI (SK-MEL-28 melanoma): > 100 µM
- TGI (SK-MEL-5 melanoma): > 100 µM
- TGI (SK-OV-3 ovarian): > 100 µM
- TGI (SN12C renal): > 100 µM
- TGI (SNB-19 CNS): > 100 µM
- TGI (SNB-75 CNS): 96.4 µM
- TGI (SNB-78 CNS): > 100 µM
- TGI (SR leukemia): 64.7 µM
- TGI (SW-620 colon): > 100 µM
- TGI (TK-10 renal): > 100 µM
- TGI (U251 CNS): 39.9 µM
- TGI (UACC-257 melanoma): > 100 µM
- TGI (UACC-62 melanoma): > 100 µM
- TGI (UO-31 renal): > 100 µM
- TGI (XF 498 CNS): > 100 µM

Compound: CCCCCCCCCCCCC(=O)[O-].CCCCCCCCCCCCC(=O)[O-].CCCCCCCCCCCCC(=O)[O-].CCCCCCCCCCCCC(=O)[O-].[Mo+2].[Mo+2]
- GI50 (786-0 renal): 3.68 µM
- TGI (786-0 renal): 16 µM
- GI50 (A549 NSCLC): 14.9 µM
- TGI (A549 NSCLC): 44.2 µM
- GI50 (ACHN renal): 16 µM
- TGI (ACHN renal): 30.4 µM
- GI50 (CCRF-CEM leukemia): 2.29 µM
- TGI (CCRF-CEM leukemia): 10 µM
- GI50 (COLO 205 colon): 19.3 µM
- TGI (COLO 205 colon): 46.4 µM
- GI50 (DLD-1 colon): 7.9 µM
- TGI (DLD-1 colon): 23.3 µM
- GI50 (DMS 114 small cell lung): 6.62 µM
- TGI (DMS 114 small cell lung): 26 µM
- GI50 (EKVX NSCLC): 19.7 µM
- TGI (EKVX NSCLC): 35.8 µM
- GI50 (HCC-2998 colon): 19.9 µM
- TGI (HCC-2998 colon): 49.8 µM
- GI50 (HCT-116 colon): 8.98 µM
- TGI (HCT-116 colon): 27.3 µM
- GI50 (HCT-15 colon): 10.4 µM
- TGI (HCT-15 colon): 22.1 µM
- GI50 (HL-60(TB) leukemia): 2.82 µM
- TGI (HL-60(TB) leukemia): 7.8 µM
- GI50 (HOP-18 NSCLC): 20.6 µM
- TGI (HOP-18 NSCLC): 34.9 µM
- GI50 (HOP-92 NSCLC): 3.56 µM
- TGI (HOP-92 NSCLC): 9.35 µM
- GI50 (HT29 colon): 12.6 µM
- TGI (HT29 colon): 27.1 µM
- GI50 (IGROV1 ovarian): 15.5 µM
- TGI (IGROV1 ovarian): 40.2 µM
- GI50 (K-562 leukemia): 10.9 µM
- TGI (K-562 leukemia): 79.8 µM
- GI50 (KM12 colon): 10.9 µM
- TGI (KM12 colon): 29.1 µM
- GI50 (KM20L2 colon): 16.2 µM
- TGI (KM20L2 colon): 34.9 µM
- GI50 (LOX IMVI melanoma): 12.1 µM
- TGI (LOX IMVI melanoma): 25.2 µM
- GI50 (LXFL 529 NSCLC): 10.7 µM
- TGI (LXFL 529 NSCLC): 22.8 µM
- GI50 (M14 melanoma): 11.7 µM
- TGI (M14 melanoma): 27.8 µM
- GI50 (M19-MEL melanoma): 18.7 µM
- TGI (M19-MEL melanoma): > 100 µM
- GI50 (MALME-3M melanoma): 11.4 µM
- TGI (MALME-3M melanoma): 28 µM
- GI50 (MOLT-4 leukemia): 3.57 µM
- TGI (MOLT-4 leukemia): 22.5 µM
- GI50 (NCI-H226 lung): 12.4 µM
- TGI (NCI-H226 lung): 46.8 µM
- GI50 (NCI-H23 lung): 17.9 µM
- TGI (NCI-H23 lung): 40.6 µM
- GI50 (NCI-H460 lung): 17.1 µM
- TGI (NCI-H460 lung): 60.1 µM
- GI50 (OVCAR-3 ovarian): 12.4 µM
- TGI (OVCAR-3 ovarian): 24.9 µM
- GI50 (OVCAR-4 ovarian): 10.2 µM
- TGI (OVCAR-4 ovarian): 24.2 µM
- GI50 (OVCAR-5 ovarian): 23.6 µM
- TGI (OVCAR-5 ovarian): 67 µM
- GI50 (OVCAR-8 ovarian): 11.9 µM
- TGI (OVCAR-8 ovarian): 31.3 µM
- GI50 (RPMI-8226 leukemia): 4.08 µM
- TGI (RPMI-8226 leukemia): 37 µM
- GI50 (RXF 393 renal): 12 µM
- TGI (RXF 393 renal): 26.1 µM
- GI50 (RXF-631 renal): 0.403 µM
- TGI (RXF-631 renal): 2.06 µM
- GI50 (SF-268 CNS): 17.3 µM
- TGI (SF-268 CNS): 45.1 µM
- GI50 (SF-295 CNS): 6.28 µM
- TGI (SF-295 CNS): 27.7 µM
- GI50 (SF-539 CNS): 13.9 µM
- TGI (SF-539 CNS): 29.1 µM
- GI50 (SK-MEL-2 melanoma): 12.2 µM
- TGI (SK-MEL-2 melanoma): 28 µM
- GI50 (SK-MEL-28 melanoma): 21.4 µM
- TGI (SK-MEL-28 melanoma): 65.7 µM
- GI50 (SK-OV-3 ovarian): 15.1 µM
- TGI (SK-OV-3 ovarian): 59.9 µM
- GI50 (SNB-19 CNS): 26.5 µM
- TGI (SNB-19 CNS): > 100 µM
- GI50 (SNB-78 CNS): 19.9 µM
- TGI (SNB-78 CNS): 67.3 µM
- GI50 (SR leukemia): 5.83 µM
- TGI (SR leukemia): 29.8 µM
- GI50 (SW-620 colon): 15.1 µM
- TGI (SW-620 colon): 29 µM
- GI50 (TK-10 renal): 32.6 µM
- TGI (TK-10 renal): 94.6 µM
- GI50 (U251 CNS): 10.7 µM
- TGI (U251 CNS): 22.6 µM
- GI50 (UACC-257 melanoma): 26.5 µM
- TGI (UACC-257 melanoma): 96.1 µM
- GI50 (UACC-62 melanoma): 11.7 µM
- TGI (UACC-62 melanoma): 26.9 µM
- GI50 (UO-31 renal): 14.7 µM
- TGI (UO-31 renal): 41.9 µM
- GI50 (XF 498 CNS): 11.3 µM
- TGI (XF 498 CNS): 23.4 µM
